Data reported in patent US20050014268A1, “Genetic transformation using a PARP inhibitor” (Bayer BioScience NV, priority 1995, published 2005).
Marks after values point to notes of the source that are not given here.

Columns and labels:
[1] = tested on: Brassica napus hypocotyl explants; test: Tissue culture of Brassica napus hypocotyl explants on A5 medium containing niacinamide; type: cell-based
Procedure: Hypocotyl explants of Brassica napus were obtained, cultured and transformed essentially as described by De Block et al, 1989, Plant Physiol. 914:694-701 except for the following modifications: • hypocotyl explants were precultured for 3 days on A2 medium (MS, 0.5 g/l Mes (pH 5.7), 1.2% glucose, 0.5% agarose, 1 mg/l 2,4-D, 0.25 mg/l naphthalene acetic acid (NAA), 1 mg/l 6-benzylaminopurine (BAP)), […] MS, 0.5 g/l Mes (pH 5.7), 1.2% glucose, 0.1 mg/l NAA, 0.75 mg/l BAP, 0.01 mg/l giberellinic acid (GA3) • selection medium A5 was 0.5 g/l Mes (pH 5.7), 1.2% glucose, 40 mg/l adenine.SO4, 0.5 g/l polyvinyl-polypyrrolidone (PVP), 0.5% agarose, 0.1 mg/l NAA, 0.75 mg/l BAP, 0.01 mg/l GA3, 250 mg/l carbenicillin, 250 mg/l triacillin, 5 mg/l AgNO3. • regeneration medium A6 was MS, 0.5 g/l Mes (pH 5.7), 2% sucrose, 40 mg/l adenine.SO4, 0.5 g/l PVP, 0.5% agarose, 0.0025 mg/l BAP, 250 mg/l triacillin. • healthy shoots were transferred to 1 liter vessels containing rooting medium which was either A8 or A9; A8 consists of 100-130 ml half concentrated MS, 1% sucrose (pH 5.0), 1 mg/l isobutyric acid (IBA), 100 mg/l triacillin added to 300 ml perlite (final pH 6.2); A9 consists of half concentrated MS, 1.5% sucrose (pH 5.8) solidified with agar (0.6%)

[2] = tested on: wheat embryogenic callus (variety Pavon); test: Transformation of wheat calli with barnase/bar plasmids by particle bombardment, with niacinamide treatment of the calli; type: cell-based
Procedure: The Wheat Spring variety Pavon is grown in a greenhouse or conditioned room at 23-24° C. during daytime and 18-20° C. at night, with a photoperiod of 16 hours light and 8 hours dark. Developing seeds (white-greenish with white semi-liquid endosperm) were harvested, sterilized by incubation for 1 minute in 70% ethanol followed by 15 minute incubation in 1.3% NaOCl+0.1% Tween 20, and washed with sterile water. The sterilized seeds were either used directly or were stored for one day at 4-7° C.
Immature embryos of about 1 mm in size were isolated and were placed, with the scutellum upwards, on callus inducing medium W1 (MS medium supplemented with 3% sucrose, 40 mg/l adenine.SO4, 0.5 mg/l thiamine.HCl, 0.5 g/l 2-[N-Morpholino] ethane sulfonic acid (Mes) pH 5.8, 0.5% agarose, 0.5 to 2.5 mg/l CuSO4.5H2O, 25 mg/l acetylsalicylic acid and 2 mg/l 2,4-dichlorophenoxyacetic acid (2,4-D)) and were incubated for 3 weeks at 27° C. in the dark.
Embryogenic sections of the developing callus were isolated, placed on callus maintenance medium W2 (W1 medium but without acetylsalicylic acid and with only 0.5 mg/l CuSO4.5H2O and 1 mg 2,4-D), and incubated for 3 weeks at 24-25° C. in the light (approx. 20 mEinsteins/s/m^2 (with a photoperiod of 16 hours light and 8 hours dark).
About 2 weeks prior to bombardment the calli were cleaned up by removal of non-morphogenic (i.e. the nonembryogenic and nonmeristematic) parts and were subcultured on W2 medium.
For bombardment the calli were divided into small pieces with an average maximum diameter of about 2-3 mm. These pieces were placed at the center of a 9 cm Petridish containing W2 medium in a circle with a diameter of approx. 0.5 cm. […]
Bombardment was carried out using the Biolistic PDS-1000/He apparatus (Bio-Rad). Preparation of the microcarriers ([…]) and the coating of the microcarriers with DNA was essentially carried out according to the manufacturer's instructions. The Petridishes containing the calli were placed at level 2 of the apparatus and the bombardment was done at 1550 psi.
For the transformation experiments the following plasmid DNA was used. • plasmid pVE136, the sequence of which is given in SEQ ID No 4. This plasmid contains the following chimeric genes: • P35S-bar-3′nos • PCA55-barnase-3′nos • in which P35S is the 35S promoter of the Cauliflower, Mosaic virus, bar is a DNA encoding phosphinothricin acetyltransferase (EP 242236), 3′nos is the 3′ untranslated end of the Agrobacterium T-DNA nopaline synthase gene, PCA55 is a stamen-specific promoter from corn gene CA55 (WO 9213957), and barnase is a DNA encoding barnase (Hartley, 1988, J.Mol.Biol.202:913-915) • plasmid pTS172 the sequence of which is given in SEQ ID No 2. This plasmid contains the following chimeric genes: • P35S-bar-3′g7 • PE1-barnase-3′nos • in which in which P35S is the 35S promoter of the Cauliflower Mosaic virus, bar is a DNA encoding phosphinothricin acetyltransferase (EP 242236), 3′g7 is the 3′ untranslated end of the Aqrobacterium T-DNA gene 7, PE1 is a stamen-specific promoter from rice gene E1 (WO 9213956), barnase is a DNA encoding barnase (Hartley, 1988, J.Mol.Biol.202:913-915), and 3′ nos is the 3′ untranslated end of the Agrobacterium T-DNA nopaline synthase gene, • plasmid pTS772 which is identical to pTS172 except that the region between nucleotides 2625-4313 of pTS172, containing PE1, is replaced by the sequence of SEQ ID No 3 containing the PT72 promoter. Thus, plasmid pTS772 contains the following chimeric genes: • P35S-bar-3′g7 • PT72-barnase-3′nos • in which PT72 is a stamen-specific promoter from rice gene T72 (WO 9213956)
The bombarded calli were transferred to selective medium W2 containing 2.5 mg/l phosphinothricin (PPT) and, if neccesary, 100 mg/l niacinamide. The calli that were placed on medium containing niacinamide were transferred after 4 days to niacinamide-free W2 medium containing 2.5 mg/l PPT. The cells were cultured at 24-25° C. […]

[3] = after 4-5 days of incubation with niacinamide
[4] = Plasmid pTS172, Before 250, 125 bombarded calli
[5] = Plasmid pTS772, Before 250, 210 bombarded calli
[6] = Plasmid pTS772, Before/After, 210 bombarded calli

NC(=O)c1cccnc1 [niacinamide]
anthocyanin production in tissue culture ([1]; A5 medium containing 250 mg/l niacinamide): no anthocyanin was produced
concentration of dehydroascorbate in the explants [1, 3]: drastically decreased
concentration of hydroxyl free radical in the explants [1, 3]: drastically decreased
percentage of cultured cells in G2 phase of the cell cycle ([1]; after a 4 day incubation in niacinamide containing medium, considerably increased): up to 45 % of all cells in the culture
Nr of PPT-resistant calli recovered ([2]; Plasmid pTS172, Before 250 (250 mg/l niacinamide for four days prior to bombardment), 125 bombarded calli): 30
Nr of MS plants recovered [2, 4]: 3^b)
Nr of PPT resistant plants recovered [2, 4]: 3
appearance of the obtained plants ([2]; Plasmid pTS172, Before 250, MS plants): ^b)The obtained plants looked healthy and tillered vigorously
Nr of PPT resistant plants recovered [2, 5]: 7
Nr of PPT-resistant calli recovered [2, 5]: 75
Nr of MS plants recovered ([2]; Plasmid pTS772, Before 250, 210 bombarded calli, only six plants could be analyzed for MS phenotype): 3^a)b)
appearance of the obtained plants ([2]; Plasmid pTS772, Before 250 and Before/After, MS plants): ^a)The obtained plants looked healthy and tillered vigorously
Nr of PPT-resistant calli recovered ([2]; Plasmid pTS772, Before/After (250 mg/l four days prior plus 100 mg/l four days after bombardment), 210 bombarded calli): 45
Nr of MS plants recovered [2, 6]: 3^a
Nr of PPT resistant plants recovered [2, 6]: 6
Nr of PPT resistant plants recovered ([2]; Plasmid pVE136, Before 100 (100 mg/l niacinamide for four days prior to bombardment), 800 bombarded calli): 8^a)
Nr of MS plants recovered ([2]; Plasmid pVE136, Before 100, 800 bombarded calli): 8
appearance of the obtained plants ([2]; Plasmid pVE136, Before 100, PPT resistant plants): ^a)The obtained plants looked healthy and tillered vigorously
recovery of plants from bombarded calli ([2]; Tables 1, 2 and 3, treated versus untreated calli): obtained only from bombarded calli that were treated with niacinamide
